On to `O=S(=O)(CC(CS)Cc1ccccc1)N1CCN(c2ccc(F)cc2)CC1` (stereo not shown) [Example 1, N-(4-fluorophenyl)-N′-(2-benzyl-3-mercaptopropane-1-sulphonyl)-piperazine], for which the melting point – broadly, the temperature of the solid-liquid transition – was 73 °C.

The values above are taken from US20030100548A1, “Arylpiperazines and their use as metallaproteinase inhibiting agents (mmp)” (priority 2000, published 2003).
